Key:
[1] = system: S. aureus ATCC 29213; assay: Synergy with oxacillin and vancomycin, partial checkerboard broth microdilution; type: cell-based, Staphylococcus aureus; settings: S. aureus ATCC 29213; for FIC (Oxa) / FIC (Van): MIC antibiotic in combination/MIC antibiotic alone; for MIC Oxa in Combination: oxacillin with the complex at ½ MIC (NH4PF6 250 µg/mL); for MIC Van in Combination: vancomycin with the complex at ½ MIC (NH4PF6 250 µg/mL)
[2] = system: Supercoiled plasmid pUC57 DNA; assay: Cleavage of pUC57 DNA, agarose gel electrophoresis; type: biochemical; settings: pUC57, 100, 200 and 300 µM
Method: DNA supercoiling plays a key role in gene expression and genome organization. The agarose gel electrophoresis assay was used to check whether the tested complexes 3a–3c are able to cleave DNA. Supercoiled plasmid pUC57 DNA (4634 bp); Thermo Scientific, ABO Sp. z o.o., Gdansk, Poland), was incubated with tested compounds (100, 200 and 300 µM). Next, loading buffer (1 μL) containing […] bromophenol blue, 0.25% xylene cyanol and 30% glycerol was added to allow the samples to be loaded into 1% w/v agarose gel. Electrophoresis was performed at 75 V in Tris-acetate- EDTA (TAE) buffer. The gel was stained using Midori green advance DNA stain (Genetics, ABO Sp. z o.o., Gdansk, Poland), and visualised under UV light with the BioRad Gel Doc 2000 system using LABWORK software (Hercules, California, USA). All experiments were carried out in triplicate under the same conditions.

[3] = system: Staphylococcus epidermidis ATCC 12228; assay: MIC and MBC/MFC by broth microdilution; type: cell-based; settings: S. epidermidis ATCC 12228
Method: (§1) Reference strains of bacteria and fungi: Staphylococcus aureus ATCC 29213, Staphylococcus epidermidis ATCC 12228, Enterococcus faecalis ATCC 29212, Pseudomonas aeruginosa ATCC 25619, Proteus vulgaris ATCC 8427, and Candida albicans ATCC 10231 (Manassas, VA, USA) were used to screen the antimicrobial activity of the arene-ruthenium(II) complexes 3a-3d, NH4PF6 and selected antibiotics. The microorganisms were grown for 24 h (bacteria) or 48 h (fungi) in 35-37 °C in tryptic-soy agar (TSA; BTL Sp. z o.o., Łódź, Poland) or Sabouraud's dextrose agar (SDA; BTL Sp. z o.o., Łódź, Poland) according to nutritional requirements. Microbial suspensions at a density of about 5 × 10^5 CFU/mL were prepared in Mueller-Hinton broth (MHB; BTL Sp. z o.o., Łódź, Poland) or RPMI-1640 medium (Sigma, St. Louis, MO, USA) for bacteria and fungi, respectively. […] Louis, MO, USA). Stock solutions of the lyophilized compounds were freshly prepared in 100% DMSO (POCh, Gliwice, Poland) for the complexes, or in water for injection (Sigma, St. Louis, MO, USA) in the case of antibiotics. […] MIC and MBC/MFC were defined as the lowest concentrations of the compounds inhibiting bacterial/fungal growth or able to kill added microbial inoculum, respectively, and were evaluated as described by […] et al.. Experiments were carried out in duplicate.

[4] = system: Pseudomonas aeruginosa ATCC 25619; assay: MIC and MBC/MFC by broth microdilution; type: cell-based; settings: P. aeruginosa ATCC 25619
Method: as §1

[5] = system: Staphylococcus aureus ATCC 29213; assay: MIC and MBC/MFC by broth microdilution; type: cell-based; settings: S. aureus ATCC 29213
Method: as §1

[6] = system: Candida albicans ATCC 10231; assay: MIC and MBC/MFC by broth microdilution; type: cell-based; settings: C. albicans ATCC 10231
Method: as §1

[7] = system: Enterococcus faecalis ATCC 29212; assay: MIC and MBC/MFC by broth microdilution; type: cell-based; settings: E. faecalis ATCC 29212
Method: as §1

[8] = system: Proteus vulgaris ATCC 8427; assay: MIC and MBC/MFC by broth microdilution; type: cell-based; settings: P. vulgaris ATCC 8427
Method: as §1

[9] = system: S. epidermidis ATCC 12228; assay: Synergy with oxacillin and vancomycin, partial checkerboard broth microdilution; type: cell-based, Staphylococcus epidermidis; settings: S. epidermidis ATCC 12228; for FIC (Oxa) / FIC (Van): MIC antibiotic in combination/MIC antibiotic alone; for MIC Oxa in Combination: oxacillin with the complex at ½ MIC (NH4PF6 250 µg/mL); for MIC Van in Combination: vancomycin with the complex at ½ MIC (NH4PF6 250 µg/mL)
[10] = system: S. epidermidis ATCC 12228; assay: Cell lysis (bacteriolysis, OD600); type: cell-based, Staphylococcus epidermidis; settings: 1 × MBC
[11] = system: Staphylococcus epidermidis ATCC 12228; assay: Fluorescence microscopy, Hoechst 33258 / propidium iodide viability; type: cell-based; settings: S. epidermidis ATCC 12228; MIC concentration, 24 h
Method: (§2) Staphylococcus aureus ATCC 29213 and Staphylococcus epidermidis ATCC 12228 strains were treated with tested compounds 2a–2d and 3a–3d at a concentration 1 × MIC for 24h, while untreated cells were used as a growth control. After incubation, the cells were harvested and a suspension of 1 × 10^5 cells/mL in PBS was prepared. Following this, 1 µl of the fluorescent dyes Hoechst 33258 and propidium iodide (15 µg/mL each) (Sigma, St. Louis, MO, USA) were added. The obtained mixture was incubated in the dark at room temperature for 15–20 min. After incubation, the cell suspensions, placed on glass slides, were analyzed under an Olympus IX 70 fluorescence microscope (Shinjuku, Tokyo, Japan), using a 360–370 nm UV filter. Photos were taken at 10 × 20 magnification.

[12] = system: Staphylococcus aureus ATCC 29213; assay: as above; type: cell-based; settings: S. aureus ATCC 29213; MIC concentration, 24 h
Method: as §2

[13] = system: S. aureus ATCC 29213; assay: Time-kill test; type: cell-based, Staphylococcus aureus; settings: 1 × MIC
Method: (§3) The time-kill experiments were performed as described previously. Briefly, inocula were prepared in TSB medium (TSB; […] BTL Sp. z o.o., Łódź, Poland). All samples were incubated at 35 °C and 80 rpm for varied time intervals (2, 4, 6, 12, 18, 24, 48h). The percentage of dead cells was calculated according to the growth control by determining the number of living cells (CFU/mL) of each tube using the agar plate count method. Samples were immediately serially diluted ten-fold in 0.01 M phosphate buffered saline (PBS, Bimed Lublin S.A., Lublin, Poland) at pH 7.0 and 10 μL aliquots were spot-inoculated in duplicate onto MHA plates. Agar plates were incubated at 37 °C overnight before determining the viable count. Two independent experiments were carried out.

[14] = system: S. epidermidis ATCC 12228; assay: Time-kill test; type: cell-based, Staphylococcus epidermidis; settings: 1 × MIC
Method: as §3

Row | Molecule | FIC (Oxa) [1] | FIC (Van) [1] | MIC Oxa in Combination [1] [µg/mL] | MIC Van in Combination [1] [µg/mL] | Cleavage of plasmid DNA, in words [2] | MBC/MFC [3] [µg/mL] | MIC [3] [µg/mL] | MBC/MFC [4] [µg/mL] | MIC [4] [µg/mL] | MBC/MFC [5] [µg/mL] | MIC [5] [µg/mL] | MBC/MFC [6] [µg/mL] | MIC [6] [µg/mL] | MBC/MFC [7] [µg/mL] | MIC [7] [µg/mL] | MBC/MFC [8] [µg/mL] | MIC [8] [µg/mL] | FIC (Oxa) [9] | FIC (Van) [9] | MIC Oxa in Combination [9] [µg/mL] | also measured
1 | Cc1cc(C)[n+]2n1C(N)=[S+][Ru-]2[Cl].Cc1ccc(C(C)C)cc1.F[P-](F)(F)(F)(F)F [Compound 3a] | 1 | 1 | 0.250 | 0.50 | did not affect DNA structure | 125 | 125 | >1000 | >1000 | 62.5 | 62.5 | >1000 | 500 | 125 | 125 | >1000 | >1000 | 0.06 | 0.03 | 0.015 | MIC Van in Combination [9]: 0.015 µg/mL; Cell lysis, change of OD600 [10]: not found to change OD600 values; Change in bacterial viability (Hoechst 33258 / PI fluorescence) [11]: Less changes in cell survival; Change in bacterial viability (Hoechst 33258 / PI fluorescence) [12]: Less changes in cell survival; Time-kill: bacteriostatic or bactericidal [13]: bacteriostatic; Time-kill: bacteriostatic or bactericidal [14]: bacteriostatic
2 | CCc1cc(CC)[n+]2n1C(N)=[S+][Ru-]2[Cl].Cc1ccc(C(C)C)cc1.F[P-](F)(F)(F)(F)F [Compound 3b] | 0.5 | 0.25 | 0.125 | 0.125 | able to cut plasmid DNA | 62.5 | 31.2 | >1000 | >1000 | 62.5 | 62.5 | >1000 | 1000 | 125 | 62.5 | >1000 | >1000 | 0.06 | 0.03 | 0.015 | Correlation with Oxa and Van (synergy), in words [1]: synergistic effects; Correlation with Oxa and Van (synergy), in words [9]: synergistic effect in all tested configurations; MIC Van in Combination [9]: 0.015 µg/mL; Cell lysis, change of OD600 [10]: not found to change OD600 values; Change in bacterial viability (Hoechst 33258 / PI fluorescence) [11]: Less changes in cell survival; Change in bacterial viability (Hoechst 33258 / PI fluorescence) [12]: Less changes in cell survival; Time-kill: bacteriostatic or bactericidal [13]: bacteriostatic; Time-kill: bacteriostatic or bactericidal [14]: bacteriostatic
3 | [(η^6-p-cymene)Ru(1-[amino(thioxo)methyl]-5-hydroxy-3-phenyl-1H-pyrazole)PF6 [Compound 3c] | 1 | 1 | 0.250 | 0.50 | able to cut plasmid DNA | 31.2 | 31.2 | >1000 | >1000 | 31.2 | 15.6 | >1000 | >1000 | 250 | <31.2 | >1000 | >1000 | 0.06 | 0.03 | 0.015 | MIC Van in Combination [9]: 0.015 µg/mL; Cell lysis, change of OD600 [10]: quite moderate decrease in OD600; Change in bacterial viability (Hoechst 33258 / PI fluorescence) [11]: greatest changes in bacterial viability; Change in bacterial viability (Hoechst 33258 / PI fluorescence) [12]: greatest changes in bacterial viability; Time-kill: bacteriostatic or bactericidal [13]: bacteriostatic; Time-kill: bacteriostatic or bactericidal [14]: bactericidal

— paper PMC8781304, “Arene-Ruthenium(II) Complexes with Carbothiamidopyrazoles as a Potential Alternative for Antibiotic Resistance in Human” (Molecules, 2022)
